From patent US11957684B2, “Treatment of heavy menstrual bleeding associated with uterine fibroids” (Sumitomo Pharma Switzerland GmbH, priority 2016, dated 2024)
Values joined by “and” are separate entries in the source; they are usually repeats but may differ in a detail not shown here. Equal values may be shown once.

Key:
[1] = Example 4: pharmacodynamics (serum hormones, urine 6β-hydroxycortisol to cortisol ratio); type: in vivo, human; details: in vivo
Source text: (§1) Descriptive statistics were used to summarize pharmacodynamic parameters: serum concentrations of estradiol (E2), FSH, LH, progesterone, growth hormone (GH), prolactin (PRL), thyrotropin, adrenocorticotropic hormone (ACTH) and urine 6β-hydroxycortisol to cortisol ratios (Q).

[2] = system: estradiol (E2), FSH, LH, progesterone; assay: as above; type: in vivo, human; details: 10 mg to 40 mg QD
Source text: as §1

FIG. 7B = assay: FIG. 7B
Source text: Table printed on a drawing sheet, FIG. 7B
The patent's description of the figure: FIGS. 7A-F are tables of plasma PK parameters for Cohorts 8 to 10 in accordance with Example 4.
First reader's note: Each column is a dose group; per the description these are Day 1 plasma PK values for Cohorts 8 to 10.

FIG. 12 = assay: FIG. 12
Source text: Table printed on a drawing sheet, FIG. 12
The patent's description of the figure: FIG. 12 is a table of urine PK parameters for Cohorts 8 to 10 on Day 1 of the treatment period in accordance with Example 4.
First reader's note: Per the description these are urine PK parameters for Cohorts 8 to 10 on Day 1; each column is one dose group.

women with endometriosis = assay: Example 8A: safety (adverse events, BMD, menstruation recovery); details: for Change from Baseline in BMD, mean: Week 24
Source text: Study participants were premenopausal (≥20 years) Japanese women with endometriosis (EM)-associated pain who completed a preceding 12-week study and were eligible to continue for an additional 12-week treatment were enrolled. The participants has confirmed normal regular menstrual cycles (25 to 38 days per cycle) and diagnosed to have EM and EM-related dysmenorrhea and pelvic pain of at least moderate severity as determined by the physician B&B scale. The primary endpoint was the safety including assessment of change in bone mineral density (BMD) using dual energy x-ray absorptiometry, adverse events, vital signs, weight, 12-lead electrocardiograms, and clinical laboratory tests.
The present extension study consisted of an additional treatment period of 12 weeks and a follow-up period of 4 weeks. Overall treatment duration was 24 weeks from the beginning of the preceding phase 2 study. Patients were assigned to the same treatment group as the preceding phase 2 study.

FIG. 5B = assay: FIG. 5B
Source text: Table printed on a drawing sheet, FIG. 5B
The patent's description of the figure: FIGS. 5A-C are tables of plasma pharmacokinetic (PK) parameters for Cohorts 1 to 6 in accordance with Example 4.
First reader's note: Plasma PK parameters by dose cohort; the series starts in FIG. 5A on another sheet and continues in FIG. 5C.

FIG. 6A = assay: FIG. 6A
Description: Table printed on a drawing sheet, FIG. 6A
The patent's description of the figure: FIGS. 6A-C are tables of plasma PK parameters for Cohort 7 in accordance with Example 4.
First reader's note: Plasma PK parameters for the fed and fasted 40 mg arms; the table continues in FIGS. 6B-C on other sheets.

FIG. 13 = assay: FIG. 13
Source text: Table printed on a drawing sheet, FIG. 13
The patent's description of the figure: FIG. 13 is a table of urine PK parameters for Cohorts 8 to 10 on Day 14 of the treatment period in accordance with Example 4.
First reader's note: Per the description these are urine PK parameters for Cohorts 8 to 10 on Day 14; each column is one dose group.

[3] = human, in vivo; cited from earlier work
[4] = system: women with uterine fibroids; details: in vivo
Source text: Secondary endpoints for safety included: Adverse events (AEs), vital signs, weight, standard 12-lead electrocardiogram (ECG), clinical laboratory tests, BMD, biochemical bone metabolism markers (serum N-telopeptide [NTELOP] and bone specific alkaline phosphatase [BAP])

For `CONC(=O)Nc1ccc(-c2sc3c(c2CN(C)C)c(=O)n(-c2ccc(OC)nn2)c(=O)n3Cc2c(F)cccc2F)cc1` [Compound 1, N-(4-(1-(2,6-difluorobenzyl)-5-((dimethylamino)methyl)-3-(6-methoxy-3-pyridazinyl)-2,4-dioxo-1,2,3,4-tetrahydrothieno[2,3-d]pyrimidin-6-yl)phenyl)-N′-methoxyurea], the “effect on endogenous GH, PRL, thyrotropin, and ACTH” value [1] was “no apparent effect”, the “ovulation (post-ovulation progesterone increase)” value [2] was “prevented ovulation” and the “CL/F (L/hr) | Mean” value (FIG. 7B) was 959.7 L/h and 697.6 L/h. The “Tmax (hr) | Median” value (FIG. 7B) was 1.480 h, the “CLr (L/hr) | Mean” value (FIG. 12) was 7.1595 L/h and 6.7303 L/h and 7.7148 L/h and the “Fe (%) | Mean” value (FIG. 12) was 0.639% and 0.938% and 1.209%. For the same compound, the “Menstruation Recovery Period, mean” value (women with endometriosis; 10 mg) was 21 days, the “Any TEAEs” value (women with endometriosis; 10 mg (N = 103)) was 89 N and the Headache (women with endometriosis; 10 mg (N = 103)) was 5 N. The Hot flush (women with endometriosis; 10 mg (N = 103)) was 12 N, the Hyperhidrosis (women with endometriosis; 10 mg (N = 103)) was 4 N and the Menorrhagia (women with endometriosis; 10 mg (N = 103)) was 11 N. For the same compound, the “Menstruation Irregular” value (women with endometriosis; 10 mg (N = 103)) was 21 N, the Metrorrhagia (women with endometriosis; 10 mg (N = 103)) was 28 N and the Nasopharyngitis (women with endometriosis; 10 mg (N = 103)) was 31 N. The Oligomenorrhea (women with endometriosis; 10 mg (N = 103)) was 12 N, the “Serious TEAEs” value (women with endometriosis; 10 mg (N = 103)) was 0 N and the “TEAEs Leading to Study Drug Discontinuation” value (“TEAEs Leading” below) (women with endometriosis; 10 mg (N = 103)) was 1 N. For the same compound, the “TEAEs Related to Study Drug” value (women with endometriosis; 10 mg (N = 103)) was 68 N, the “TEAEs, Mild” value (women with endometriosis; 10 mg (N = 103)) was 83 N and the “TEAEs, Moderate” value (women with endometriosis; 10 mg (N = 103)) was 6 N. The “TEAEs, Severe” value (women with endometriosis; 10 mg (N = 103)) was 0 N, the “Change from Baseline in BMD, mean” value (women with endometriosis; 10 mg) was −1.6% and the “Menstruation Recovery Period, mean” value (women with endometriosis; 20 mg) was 26 days. The “Any TEAEs” value (women with endometriosis; 20 mg (N = 100)) was 96 N, the Headache (women with endometriosis; 20 mg (N = 100)) was 12 N and the Hot flush (women with endometriosis; 20 mg (N = 100)) was 23 N. For the same compound, the Hyperhidrosis (women with endometriosis; 20 mg (N = 100)) was 11 N, the Menorrhagia (women with endometriosis; 20 mg (N = 100)) was 16 N and the “Menstruation Irregular” value (women with endometriosis; 20 mg (N = 100)) was 21 N. For the same compound, the Metrorrhagia (women with endometriosis; 20 mg (N = 100)) was 36 N, the Nasopharyngitis (women with endometriosis; 20 mg (N = 100)) was 31 N and the Oligomenorrhea (women with endometriosis; 20 mg (N = 100)) was 12 N. The “Serious TEAEs” value (women with endometriosis; 20 mg (N = 100)) was 2 N, the “TEAEs Leading” value (women with endometriosis; 20 mg (N = 100)) was 7 N and the “TEAEs Related to Study Drug” value (women with endometriosis; 20 mg (N = 100)) was 88 N. For the same compound, the “TEAEs, Mild” value (women with endometriosis; 20 mg (N = 100)) was 82 N, the “TEAEs, Moderate” value (women with endometriosis; 20 mg (N = 100)) was 14 N and the “TEAEs, Severe” value (women with endometriosis; 20 mg (N = 100)) was 0 N. For the same compound, the “Change from Baseline in BMD, mean” value (women with endometriosis; 20 mg) was −2.6%, the “Menstruation Recovery Period, mean” value (women with endometriosis; 40 mg) was 37 days and the “Any TEAEs” value (women with endometriosis; 40 mg (N = 103)) was 98 N. The Headache (women with endometriosis; 40 mg (N = 103)) was 11 N, the Hot flush (women with endometriosis; 40 mg (N = 103)) was 55 N and the Hyperhidrosis (women with endometriosis; 40 mg (N = 103)) was 10 N. The Menorrhagia (women with endometriosis; 40 mg (N = 103)) was 15 N, the “Menstruation Irregular” value (women with endometriosis; 40 mg (N = 103)) was 7 N and the Metrorrhagia (women with endometriosis; 40 mg (N = 103)) was 30 N. The Nasopharyngitis (women with endometriosis; 40 mg (N = 103)) was 31 N, the Oligomenorrhea (women with endometriosis; 40 mg (N = 103)) was 1 N and the “Serious TEAEs” value (women with endometriosis; 40 mg (N = 103)) was 0 N. The “TEAEs Leading” value (women with endometriosis; 40 mg (N = 103)) was 2 N, the “TEAEs Related to Study Drug” value (women with endometriosis; 40 mg (N = 103)) was 91 N and the “TEAEs, Mild” value (women with endometriosis; 40 mg (N = 103)) was 83 N. The “TEAEs, Moderate” value (women with endometriosis; 40 mg (N = 103)) was 15 N, the “TEAEs, Severe” value (women with endometriosis; 40 mg (N = 103)) was 0 N and the “Change from Baseline in BMD, mean” value (women with endometriosis; 40 mg) was −4.9%. For the same compound, the “Tmax (hr) | Median” value (FIG. 5B) was 0.775 h and 1.015 h and 1.500 h, the “AUC (O-inf) (ng*hr/mL) | Mean” value (FIG. 6A) was 63.437 ng·h/mL and 125.275 ng·h/mL and the “AUC (O-tlqc) (ng*hr/mL) | Mean” value (FIG. 6A) was 55.792 ng·h/mL and 110.782 ng·h/mL. The “Ae (0-24) (ng) | Median” value (FIG. 13) was 141057.00 ng, the “CLr (L/hr) | Mean” value (FIG. 13) was 6.4821 L/h and 6.7992 L/h and 6.8776 L/h and the “Fe (%) | Mean” value (FIG. 13) was 1.335% and 1.930% and 1.955%.

For `CCNC(=O)[C@@H]1CCCN1C(=O)[C@H](CCCNC(=N)N)NC(=O)[C@H](CC(C)C)NC(=O)[C@@H](CC(C)C)NC(=O)[C@H](Cc1ccc(O)cc1)NC(=O)[C@H](CO)NC(=O)[C@H](Cc1c[nH]c2ccccc12)NC(=O)[C@H](Cc1c[nH]cn1)NC(=O)[C@@H]1CCC(=O)N1` [leuprolide acetate, reference compound], the “bone mineral density decrease” value [3] is given as −2.21±1.709%, the “women with a decrease of more than 5.0% in bone mineral density” value [3] is given as 10 of 157 and the “AE leading to discontinuation: Abdominal pain” value [4] is given as 1(0.7) n(%). The “AE leading to discontinuation: Arthralgia” value [4] was 1(0.7) n(%), the “AE leading to discontinuation: Back pain” value [4] was 1(0.7) n(%) and the “AE leading to discontinuation: Blood pressure increased” value [4] was 1(0.7) n(%). The “AE leading to discontinuation: Depression” value [4] was 0(0.0) n(%), the “AE leading to discontinuation: Drug eruption” value [4] was 1(0.7) n(%) and the “AE leading to discontinuation: Fatigue” value [4] was 0(0.0) n(%). The “AE leading to discontinuation: Headache” value [4] was 0(0.0) n(%), the “AE leading to discontinuation: Hot flush” value [4] was 1(0.7) n(%) and the “AE leading to discontinuation: Hypertension” value [4] was 1(0.7) n(%). For the same compound, the “AE leading to discontinuation: Liver function test abnormal” value [4] was 1(0.7) n(%), the “AE leading to discontinuation: Liver function test increased” value [4] was 1(0.7) n(%) and the “AE leading to discontinuation: Malaise” value [4] was 1(0.7) n(%). The “AE leading to discontinuation: Nausea” value [4] was 1(0.7) n(%), the “AE leading to discontinuation: Pyrexia” value [4] was 1(0.7) n(%) and the “AE leading to discontinuation: Tenosynovitis” value [4] was 0(0.0) n(%). For the same compound, the “AE leading to discontinuation: Tenosynovitis stenosans” value [4] was 0(0.0) n(%), the “AE: Arthralgia” value [4] was 9(6.3) n(%) and the “AE: Bone density decreased” value [4] was 8(5.6) n(%). For the same compound, the “AE: Bone resorption test abnormal” value [4] was 7(4.9) n(%), the “AE: Dizziness” value [4] was 7(4.9) n(%) and the “AE: Gamma-glutamyl transferase increased” value [4] was 9(6.3) n(%). The “AE: Genital haemorrhage” value [4] was 7(4.9) n(%), the “AE: Headache” value [4] was 14(9.9) n(%) and the “AE: Hot flush” value [4] was 75(52.8) n(%). For the same compound, the “AE: Hyperhidrosis” value [4] was 15(10.6) n(%), the “AE: Malaise” value [4] was 5(3.5) n(%) and the “AE: Menorrhagia” value [4] was 22(15.5) n(%). The “AE: Metrorrhagia” value [4] was 93(65.5) n(%), the “AE: Resorption bone increased” value [4] was 8(5.6) n(%) and the “AE: Somnolence” value [4] was 6(4.2) n(%). For the same compound, the “AE: Viral upper respiratory tract infection” value [4] was 46(32.4) n(%), the “AEs Leading to Study Drug Discontinuation” value [4] was 7(4.9) n(%) and the “ALP > 3 × ULN” value [4] was 0 (0.0) n (%). The “ALT > 3 × ULN” value [4] was 2 (1.4) n (%), the “ALT > 5 × ULN” value [4] was 0 (0.0) n (%) and the “ALT and AST > 3 × ULN” value [4] was 0 (0.0) n (%). The “ALT or AST > 3 × ULN with Tbili > 2 × ULN” value [4] was 0 (0.0) n (%), the “AST > 3 × ULN” value [4] was 0 (0.0) n (%) and the “AST > 5 × ULN” value [4] was 0 (0.0) n (%). The “Any Markedly Abnormal LFT” value [4] was 2 (1.4) n (%), the “SAEs Leading to Study Drug Discontinuation” value [4] was 0(0.0) n(%) and the “Serious Treatment-Emergent AEs” value [4] was 2(1.4) n(%). The “Serious Treatment-Emergent AEs, Not Related” value [4] was 2(1.4) n(%), the “Serious Treatment-Emergent AEs, Related” value [4] was 0(0.0) n(%) and the “Treatment-Emergent AEs” value [4] was 139(97.9) n(%). The “Treatment-Emergent AEs, Not Related” value [4] was 5(3.5) n(%) and the “Treatment-Emergent AEs, Related” value [4] was 134(94.4) n(%).
